Data published in ChEMBL document CHEMBL3638656, “Trifluoromethyl-oxadiazole derivatives and their use in the treatment of disease” (2015).
pIC50: −log10 of the molar value.

Target: Histone deacetylase 4 (Homo sapiens, UniProt P56524)
Assay: Inhibition Assay: Human recombinant HDAC4 was expressed in full length form (aa 2-1084) in Sf9 insect cells (obtained from ATCC) using baculovirus generated with Bac-to-Bac system (Invitrogen). Test compounds were serially diluted to reach final test concentrations from 0.003 uM to 100 uM. HDAC4 and test compounds were incubated in 25 mM Tris buffer pH 8.0 containing 137 mM NaCl, 2.7 mM KCl, 1 mM MgCl2 and 0.05% (w/v) bovine serum albumine for 2 hours at room temperature in presence of 10 uM of acetyl-Gly-Ala-Lys(E-trifluoroacetyl)-AMC (AMC=7-amino-4-methyl coumarin) in a final volume of 200 ul. Control wells with HDAC4 only (positive control) and without HDAC4 (negative control) were included on the microplate. Bovine trypsin (10 ul of a 0.4 mg/ml solution) was added and the plate incubated for additional 15 minutes at room temperature. The plate was placed in a fluorescence microplate reader, and read at an excitation wavelength of 360 nm and an emission wavelength of 450 nm.

Chain of Histone deacetylase 4 (P56524 whole entry, the tested form may be a part): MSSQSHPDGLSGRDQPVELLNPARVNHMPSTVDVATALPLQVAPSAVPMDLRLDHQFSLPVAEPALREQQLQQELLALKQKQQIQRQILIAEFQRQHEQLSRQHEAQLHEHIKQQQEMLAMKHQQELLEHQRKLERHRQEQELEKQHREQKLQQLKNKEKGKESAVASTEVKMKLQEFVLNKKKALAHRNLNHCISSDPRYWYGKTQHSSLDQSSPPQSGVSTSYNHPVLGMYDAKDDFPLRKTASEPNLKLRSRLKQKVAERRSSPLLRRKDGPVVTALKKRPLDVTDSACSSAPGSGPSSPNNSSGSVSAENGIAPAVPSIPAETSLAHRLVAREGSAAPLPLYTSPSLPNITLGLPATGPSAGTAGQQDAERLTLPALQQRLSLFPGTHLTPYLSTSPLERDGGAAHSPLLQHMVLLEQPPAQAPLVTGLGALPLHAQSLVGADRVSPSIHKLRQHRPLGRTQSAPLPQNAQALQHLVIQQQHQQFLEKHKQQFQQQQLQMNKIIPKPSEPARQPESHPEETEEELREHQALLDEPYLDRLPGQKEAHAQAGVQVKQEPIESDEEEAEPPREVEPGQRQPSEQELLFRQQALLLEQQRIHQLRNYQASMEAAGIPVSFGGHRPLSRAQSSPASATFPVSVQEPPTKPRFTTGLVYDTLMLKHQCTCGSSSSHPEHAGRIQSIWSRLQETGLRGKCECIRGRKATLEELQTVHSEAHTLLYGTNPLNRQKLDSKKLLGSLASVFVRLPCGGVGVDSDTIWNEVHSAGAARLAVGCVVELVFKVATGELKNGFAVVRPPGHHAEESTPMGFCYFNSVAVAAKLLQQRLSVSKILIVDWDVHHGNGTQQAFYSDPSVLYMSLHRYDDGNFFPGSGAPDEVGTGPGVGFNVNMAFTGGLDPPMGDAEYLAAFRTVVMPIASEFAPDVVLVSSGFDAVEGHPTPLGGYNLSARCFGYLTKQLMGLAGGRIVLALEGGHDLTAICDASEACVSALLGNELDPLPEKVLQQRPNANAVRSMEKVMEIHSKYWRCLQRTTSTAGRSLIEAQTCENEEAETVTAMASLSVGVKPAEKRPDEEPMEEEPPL

pIC50: 7.14
SMILES: CCN(C)C[C@@H](C)NC(=O)c1ccc(-c2noc(C(F)(F)F)n2)cc1F
